The values below come from patent US8173376B2, “Method for identifying compounds for treatment of pain” (Universite Laval, priority 2003, dated 2012).

One data set relates to lamina I neurons. Put plainly: Anion reversal potential (Eanion) by gramicidin-D perforated-patch voltage-clamp recording in dorsal horn slices. The format is cell-based, rat.
The subject of data set [1] is Sprague-Dawley rats. Put plainly: Tactile/mechanical nociceptive withdrawal threshold (von Frey) after intrathecal delivery. The data set is classed as in vivo, rat. The following applies: for Nociceptive threshold for mechanical stimulation: intrathecal, 10 μg/day x 6 days.
The subject of data set [2] is Sprague-Dawley rats. The following applies: intrathecal, at the doses used.
A further data set relates to KCC2. Put plainly: Immunoblot of spinal KCC2 protein after intrathecal oligodeoxynucleotide treatment. The data set is classed as in vivo, rat. The following applies: naïve rats, antisense 12 h or 36 h. A general note: In western blotting, separated proteins are transferred to a membrane and probed.
For a further data set, the system named is lamina I (LI) neurons. Put plainly: Calcium imaging (fura-2-AM) of GABA-evoked [Ca2+]i rise in lamina I neurons in spinal cord slices. The data set is classed as cell-based, rat.
The test system of data set [3] is voltage sensitive Ca2+ channels (VSCCs) and NMDA receptor/channels. As to conditions: cited from earlier work; for Efficacy in the treatment of neuropathic pain: humans.
The next data set deals with GlyRs and GABAARs. Put plainly: Whole-cell recording of miniature postsynaptic currents (mPSCs) and GABA-evoked responses in LI neurons. The data set is classed as cell-based, rat. The following applies: LI neuron, p>0.5.
Data set [4] concerns Sprague-Dawley rats. Put plainly: Thermal nociceptive withdrawal latency after intrathecal injection. The format is in vivo, rat. As to conditions: intact naïve rats, DIOA 15-30 μg intrathecal.
[5] abbreviates: lamina I neurons from naïve rats, 50 ng/ml in bath.

“Also recorded” adds a separate entry of the source.

On to `COC(=O)[C@@]1(O)C[C@H]2O[C@]1(C)n1c3ccccc3c3c4c(c5c6ccccc6n2c5c31)C(=O)NC4` [K-252a], for which the “Change of Eanion” value in the data set with lamina I neurons (lamina I neurons from PNI rats, K-252a 200 nM in bath) is given as “hyperpolarization of the Eanion to a level similar to that observed in lamina I neurons taken from naïve rats; also recorded: significant hyperpolarization”. For the same molecule, in the data set with Sprague-Dawley rats [1] (PNI rats, K-252a 6 nM intrathecal, vs vehicle), the “Threshold for tactile nociceptive withdrawal” value is “increase”. Moreover, the “Motor disturbances or sedation” value in the data set on Sprague-Dawley rats [2] is recorded as “did not produce any motor disturbances or sedation”.

For “human recombinant NGF: human recombinant NGF for intrathecal delivery”, the “Nociceptive threshold for mechanical stimulation” value in the data set with Sprague-Dawley rats [1] (naïve rats) is listed as “very similar decrease”.

Turning to “5′-TCTCCTTGGGATTGCCGTCA-3′ (DNA, all phosphorothioate, methylation of C not given here) [KCC2 antisense oligodeoxynucleotide]”, the “Spinal KCC2 protein levels (immunoblots)” value in the data set with KCC2 is reported as “Decrease”. The “Tactile nociceptive withdrawal threshold” value with Sprague-Dawley rats [1] (naïve rats, intrathecal antisense each 12 h (0 h, 12 h, 24 h), vs scrambled oligodeoxynucleotide) is recorded as “significant decrease”.

Take `NC1=N[C@H](O)[C@H]2[C@H]3O[C@]4(O)O[C@@H]([C@@H](O)[C@@]2(N1)[C@@H]4O)[C@]3(O)CO` [tetrodotoxin]: the “Block of GABA-evoked [Ca2+]i responses” value in the data set with lamina I (LI) neurons is “blocked”.

Turning to `NCC1(CC(=O)O)CCCCC1` [gabapentin], in data set [3], the “Efficacy in the treatment of neuropathic pain” value is “highly efficacious”.

Consider `O=S(=O)(NCCNC/C=C/c1ccc(Br)cc1)c1cccc2cnccc12` [H-89], for which the “Change of Eanion” value in the data set on lamina I neurons (lamina I neurons from PNI rats, H-89 15 in bath) was “significant hyperpolarization”. Besides, the “Nociceptive threshold to mechanical stimulation” value in the data set on Sprague-Dawley rats [1] (H-89 380 nmol local spinal delivery, vs vehicle) is given as “increase”.

`CCCCC1(C2CCCC2)Cc2cc(OCC(=O)O)c(Cl)c(Cl)c2C1=O` (stereo not shown) [DIOA]: the “Effect on peak conductance of synaptic events (mPSCs)” value in the data set with GlyRs and GABAARs (CsCl pipette, Eanion clamped at 0 mV, n=4 neurons x 50 mPSCs) is recorded as “neither affected”. Further, the “Effect on GABA-evoked responses” value in the data set on GlyRs and GABAARs (n=5) is “neither affected”. For the same molecule, in the data set on lamina I (LI) neurons (naïve rat spinal slices, bath applied DIOA 30 μM), the “LI neurons showing an increase in [Ca2+]i on GABA application” value was found to be 30%. The “Proportion of LI neurons displaying a GABA-evoked increase in [Ca2+]i (in words)” value with lamina I (LI) neurons (naïve rats, in the presence of DIOA, χ2 corrected=4.43) is given as “significantly higher”. In addition, in the data set on Sprague-Dawley rats [1] (intact naïve rats, DIOA 15-30 μg intrathecal), the “Nociceptive threshold to mechanical stimuli” value was “rapid and reversible decrease”. In the data set with Sprague-Dawley rats [4], the “Nociceptive threshold to thermal stimuli (withdrawal latency)” value is “rapid and reversible decrease”.

In the case of KN-93, the “Change of Eanion” value with lamina I neurons (lamina I neurons from PNI rats, KN-93 5 μM in bath) was “significant hyperpolarization”.

As for “NGF: nerve growth factor, activator of TrkA, bath applied”, the “Change of Eanion” value with lamina I neurons (setting [5]) is reported as “significantly depolarized; also recorded: significant depolarization”.

Take `CNC1(c2ccccc2Cl)CCCCC1=O` (stereo not shown) [ketamine]: the “Efficacy in the treatment of neuropathic pain” value in data set [3] is “highly efficacious”. The Side effects entry in data set [3] (use of Ca2+ channel blockers / NMDA antagonists) is reported as “many undesirable side effects”.

B1: BDNF: brain-derived neurotrophic factor, activator of TrkB, bath applied (protein, UniProt P23560 19-247, looked up)
Neurotrophic factor BDNF …: APMKEANIRGQGGLAYPGVRTHGTLESVNGPKAGSRGLTSLADTFEHVIEELLDEDQKVRPNEENNKDADLYTSRVMLSSQVPLEPPLLFLLEEYKNYLDAANMSMRVRRHSDPARRGELSVCDSISEWVTAADKKTAVDMSGGTVTVLEKVPVSKGQLKQYFYETKCNPMGYTKEGCRGIDKRHWNSQCRTTQSYVRALTMDSKKRIGWRFIRIDTSCVCTLTIKRGR
Regarding B1, the “Change of Eanion” value in the data set on lamina I neurons (setting [5]) is on record as “significantly depolarized; also recorded: significant depolarization”.

B2: human recombinant BDNF: human recombinant BDNF for local spinal delivery (protein, UniProt P23560 19-247, looked up)
Neurotrophic factor BDNF …: B1 Neurotrophic factor BDNF …
Regarding B2, the “Nociceptive threshold for mechanical stimulation” value in the data set with Sprague-Dawley rats [1] (naïve rats) was “significant decrease”.
